Measurements as given in PubChem BioAssay AID248 (DTP/NCI, 2004).
Where “and” joins values, the source holds several entries; their conditions need not be identical. Identical values can stand only once. Toxic doses and inconclusive results are not listed.

Tested on: L1210 leukemia ip in BDF1 mice, survival T/C
Test: NCI In Vivo Anticancer Drug Screen. Data for tumor model L1210 Leukemia (intraperitoneal) in B6D2F1 (BDF1) mice
Conditions: endpoint: mean survival time, higher = longer survival
How it was run: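 Antitumor effect is assessed in tumor-bearing animals. Survival in the compound arm is compared with a vehicle-dosed control arm and expressed as their quotient.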

[1] = dose: 50.0 mg/kg/injection, schedule: Q01DX001 (ip), vehicle: other
[2] = dose: 100.0 mg/kg/injection, schedule: Q01DX009 (ip), vehicle: Klucel (hydroxypropylcellulose) (HPC)
[3] = dose: 100.0 mg/kg/injection, schedule: Q04DX003 (ip), vehicle: Klucel (hydroxypropylcellulose) (HPC)
[4] = dose: 200.0 mg/kg/injection, schedule: Q01DX009 (ip), vehicle: Klucel (hydroxypropylcellulose) (HPC)
[5] = dose: 200.0 mg/kg/injection, schedule: Q04DX003 (ip), vehicle: Klucel (hydroxypropylcellulose) (HPC)
[6] = dose: 400.0 mg/kg/injection, schedule: Q01DX009 (ip), vehicle: Klucel (hydroxypropylcellulose) (HPC)
[7] = dose: 400.0 mg/kg/injection, schedule: Q04DX003 (ip), vehicle: Klucel (hydroxypropylcellulose) (HPC)
[8] = dose: 100.0 mg/kg/injection, schedule: Q04DX003 (ip), vehicle: saline
[9] = dose: 200.0 mg/kg/injection, schedule: Q04DX003 (ip), vehicle: saline
[10] = dose: 100.0 mg/kg/injection, schedule: Q04DX003 (ip), vehicle: saline with Tween-80
[11] = dose: 200.0 mg/kg/injection, schedule: Q04DX003 (ip), vehicle: saline with Tween-80
[12] = dose: 400.0 mg/kg/injection, schedule: Q04DX003 (ip), vehicle: saline with Tween-80
[13] = dose: 100.0 mg/kg/injection, schedule: Q01DX001 (ip), vehicle: carboxymethylcellulose (CMC)
[14] = dose: 200.0 mg/kg/injection, schedule: Q01DX001 (ip), vehicle: carboxymethylcellulose (CMC)
[15] = dose: 50.0 mg/kg/injection, schedule: Q04DX003 (ip), vehicle: saline

`O=C1NC(C2CCC3CN32)C(=O)NC1C1CCC2CN21` (centres undefined) was tested, and the T/C (dose: 0.2 mg/kg/injection, schedule: Q01DX009 (ip), vehicle: saline) was 102 % of control and 105 % of control, the T/C (dose: 0.4 mg/kg/injection, schedule: Q01DX009 (ip), vehicle: saline) was 110 % of control and 113 % of control and the T/C (dose: 0.5 mg/kg/injection, schedule: Q01DX001 (ip), vehicle: Klucel (hydroxypropylcellulose) (HPC)) was 101 % of control. For the same compound, the T/C (dose: 0.8 mg/kg/injection, schedule: Q01DX009 (ip), vehicle: saline) was 110 % of control, the T/C (dose: 1.0 mg/kg/injection, schedule: Q01DX001 (ip), vehicle: Klucel (hydroxypropylcellulose) (HPC)) was 101 % of control and the T/C (dose: 1.1 mg/kg/injection, schedule: Q01DX009 (ip), vehicle: saline) was 112 % of control. The T/C (dose: 2.0 mg/kg/injection, schedule: Q01DX001 (ip), vehicle: Klucel (hydroxypropylcellulose) (HPC)) was 151 % of control, the T/C (dose: 2.7 mg/kg/injection, schedule: Q01DX009 (ip), vehicle: saline) was 163 % of control and the T/C (dose: 5.0 mg/kg/injection, schedule: Q01DX009 (ip), vehicle: saline) was 182 % of control. For the same compound, the T/C (dose: 10.0 mg/kg/injection, schedule: Q01DX009 (ip), vehicle: saline) was 103 % of control, the T/C (dose: 16.0 mg/kg/injection, schedule: Q01DX001 (ip), vehicle: Klucel (hydroxypropylcellulose) (HPC)) was 164 % of control and 271 % of control and the T/C (dose: 24.0 mg/kg/injection, schedule: Q01DX001 (ip), vehicle: Klucel (hydroxypropylcellulose) (HPC)) was 169 % of control. For the same compound, the T/C (dose: 36.0 mg/kg/injection, schedule: Q01DX001 (ip), vehicle: Klucel (hydroxypropylcellulose) (HPC)) was 101 % of control.

For `CCOC(=O)/C=N/Nc1ccc([N+](=O)[O-])cc1[N+](=O)[O-]`, the T/C [1] was 95 % of control, the T/C (dose: 100.0 mg/kg/injection, schedule: Q01DX001 (ip), vehicle: other) was 90 % of control and the T/C (dose: 200.0 mg/kg/injection, schedule: Q01DX001 (ip), vehicle: other) was 95 % of control. The T/C (dose: 400.0 mg/kg/injection, schedule: Q01DX001 (ip), vehicle: other) was 92 % of control.

In the case of `CCC[CH2][Sn]([CH2]CCC)([CH2]CCC)[O]C(=O)CC[S][Sn]([CH2]CCC)([CH2]CCC)[CH2]CCC`, the T/C (dose: 0.5 mg/kg/injection, schedule: Q01DX015 (ip), vehicle: saline) is reported as 97 % of control, the T/C (dose: 1.0 mg/kg/injection, schedule: Q01DX015 (ip), vehicle: saline) is reported as 100 % of control and the T/C (dose: 2.0 mg/kg/injection, schedule: Q01DX015 (ip), vehicle: saline) is reported as 95 % of control. For the same compound, the T/C (dose: 2.5 mg/kg/injection, schedule: Q01DX001 (ip), vehicle: saline) was 103 % of control, the T/C (dose: 4.0 mg/kg/injection, schedule: Q01DX015 (ip), vehicle: saline) was 87 % of control and the T/C (dose: 5.0 mg/kg/injection, schedule: Q01DX001 (ip), vehicle: saline) was 100 % of control. For the same compound, the T/C (dose: 10.0 mg/kg/injection, schedule: Q01DX001 (ip), vehicle: saline) was 105 % of control and the T/C (dose: 20.0 mg/kg/injection, schedule: Q01DX001 (ip), vehicle: saline) was 97 % of control.

With `CCOC(=O)c1ccc(N=CNc2ccc(C(=O)OCC)cc2)cc1` the T/C (dose: 12.5 mg/kg/injection, schedule: Q01DX001 (ip), vehicle: other) was 106 % of control, the T/C (dose: 12.5 mg/kg/injection, schedule: Q01DX009 (ip), vehicle: saline with Tween-80) was 100 % of control and the T/C (dose: 12.5 mg/kg/injection, schedule: Q04DX003 (ip), vehicle: saline with Tween-80) was 96 % of control. The T/C (dose: 25.0 mg/kg/injection, schedule: Q01DX001 (ip), vehicle: other) was 95 % of control, the T/C (dose: 25.0 mg/kg/injection, schedule: Q01DX009 (ip), vehicle: saline with Tween-80) was 93 % of control and the T/C (dose: 25.0 mg/kg/injection, schedule: Q04DX003 (ip), vehicle: saline with Tween-80) was 95 % of control. The T/C [1] was 93 % of control, the T/C (dose: 50.0 mg/kg/injection, schedule: Q01DX009 (ip), vehicle: saline with Tween-80) was 96 % of control and the T/C (dose: 50.0 mg/kg/injection, schedule: Q04DX003 (ip), vehicle: saline with Tween-80) was 95 % of control.

In the case of `CC(=O)ONc1nc(C)c(CCC2OCCO2)c(=O)[nH]1`, the T/C [2] is reported as 95 % of control, the T/C [3] is reported as 105 % of control and the T/C [4] is reported as 102 % of control. The T/C [5] was 105 % of control, the T/C [6] was 95 % of control and the T/C [7] was 98 % of control.

In the case of `Cn1c(=O)oc2ccccc2c1=O`, the T/C [8] is reported as 98 % of control, the T/C [9] is reported as 97 % of control and the T/C (dose: 400.0 mg/kg/injection, schedule: Q04DX003 (ip), vehicle: saline) is reported as 109 % of control.

In the case of `COC(=O)c1ccc2oc(=O)cc(C)c2c1O`, the T/C (dose: 100.0 mg/kg/injection, schedule: Q01DX009 (ip), vehicle: saline with Tween-80) is reported as 95 % of control, the T/C [10] is reported as 93 % of control and the T/C (dose: 200.0 mg/kg/injection, schedule: Q01DX009 (ip), vehicle: saline with Tween-80) is reported as 100 % of control. The T/C [11] was 95 % of control, the T/C (dose: 400.0 mg/kg/injection, schedule: Q01DX009 (ip), vehicle: saline with Tween-80) was 94 % of control and the T/C [12] was 93 % of control.

`O=C(OC1CSC1)c1ccc([N+](=O)[O-])cc1` was tested, and the T/C [2] was 95 % of control, the T/C [4] was 92 % of control and the T/C [6] was 97 % of control.

`COc1cccc(C(Cc2ccc(N3C(N)=NC(N)=NC3(C)C)cc2)C(=O)Nc2ccc(S(=O)(=O)F)cc2)c1` (centres undefined) was tested, and the T/C (dose: 50.0 mg/kg/injection, schedule: Q01DX001 (ip), vehicle: Klucel (hydroxypropylcellulose) (HPC)) was 99 % of control, the T/C (dose: 100.0 mg/kg/injection, schedule: Q01DX001 (ip), vehicle: Klucel (hydroxypropylcellulose) (HPC)) was 99 % of control and the T/C (dose: 200.0 mg/kg/injection, schedule: Q01DX001 (ip), vehicle: Klucel (hydroxypropylcellulose) (HPC)) was 96 % of control.

In the case of `Nc1cc([N+](=O)[O-])cc([N+](=O)[O-])c1`, the T/C (dose: 50.0 mg/kg/injection, schedule: Q01DX001 (ip), vehicle: carboxymethylcellulose (CMC)) is reported as 109 % of control, the T/C [13] is reported as 118 % of control and the T/C [14] is reported as 113 % of control.

`O=C1C(C2OC2c2ccccc2)CCCC1C1OC1c1ccccc1` (centres undefined) was tested, and the T/C (dose: 100.0 mg/kg/injection, schedule: Q01DX009 (ip), vehicle: saline sonified) was 94 % of control, the T/C [3] was 97 % of control and the T/C (dose: 200.0 mg/kg/injection, schedule: Q01DX009 (ip), vehicle: saline sonified) was 97 % of control. For the same compound, the T/C [5] was 98 % of control, the T/C (dose: 400.0 mg/kg/injection, schedule: Q01DX009 (ip), vehicle: saline sonified) was 103 % of control and the T/C [7] was 97 % of control.

With `COC(=O)C1=CNC=C(C(=O)OC)C1c1ccccc1` the T/C [10] was 96 % of control, the T/C [11] was 96 % of control and the T/C [12] was 98 % of control.

With `CC(=O)OC1CCC2CCCCC2/C1=N\O` (centres undefined) the T/C [15] was 112 % of control, the T/C [8] was 95 % of control and the T/C [9] was 97 % of control.

In the case of `CCCCCCCCCCCCCOc1ccc(S(=O)(=O)/N=C(\N)NC(N)=NCCCCCCCCCCCC)cc1`, the T/C (dose: 100.0 mg/kg/injection, schedule: Q04DX002 (ip), vehicle: Klucel (hydroxypropylcellulose) (HPC)) is reported as 93 % of control, the T/C (dose: 200.0 mg/kg/injection, schedule: Q04DX002 (ip), vehicle: Klucel (hydroxypropylcellulose) (HPC)) is reported as 93 % of control and the T/C (dose: 400.0 mg/kg/injection, schedule: Q04DX002 (ip), vehicle: Klucel (hydroxypropylcellulose) (HPC)) is reported as 86 % of control.

`COc1ccc(/C=C2\CS(=O)(=O)C/C(=C\c3ccc(OC)cc3)C2=O)cc1` was tested, and the T/C (dose: 100.0 mg/kg/injection, schedule: Q01DX001 (ip), vehicle: saline) was 94 % of control and the T/C (dose: 400.0 mg/kg/injection, schedule: Q01DX001 (ip), vehicle: saline) was 95 % of control.

In the case of `CCN(CC)CCOc1ccccc1Br`, the T/C (dose: 12.5 mg/kg/injection, schedule: Q04DX003 (ip), vehicle: saline) is reported as 97 % of control, the T/C (dose: 25.0 mg/kg/injection, schedule: Q01DX009 (ip), vehicle: saline) is reported as 95 % of control and the T/C (dose: 25.0 mg/kg/injection, schedule: Q04DX003 (ip), vehicle: saline) is reported as 96 % of control. The T/C (dose: 50.0 mg/kg/injection, schedule: Q01DX009 (ip), vehicle: saline) was 98 % of control, the T/C [15] was 97 % of control and the T/C [8] was 100 % of control.

In the case of `CCC1([N+](=O)[O-])COP(=O)(NCc2ccncc2)OC1` (centres undefined), the T/C [13] is reported as 98 % of control, the T/C [14] is reported as 98 % of control and the T/C (dose: 400.0 mg/kg/injection, schedule: Q01DX001 (ip), vehicle: carboxymethylcellulose (CMC)) is reported as 96 % of control.
